Source: patent publication US20160303095A1, “METHODS OF TREATING HEPATITIS B VIRUS” (Gilead Sciences, Inc., priority 2015, published 2016)
Read-outs that look alike come from different tables or passages of the source.

Legend:
[1] = Alamar Blue cell viability assay; format: cell-based; conditions: human
Experimental: Alamar Blue cell viability reagent (Cat#DAL1100 Life Technologies, Chicago, Ill.) was diluted 1 to 10 in Maintenance Media and added to the cells. Cells were incubated for 4 h at 37° C. and the fluorescence signal, which is proportional to the number of live cells, was read using a fluorimeter with excitation/emission spectra set at 560/590 nm, respectively. Data were converted into percentages of the untreated control and non-linear regression was performed to calculate CC50 values.
PHH were plated in collagen coated tissue culture plates in Plating Media and after 4-hour incubation at 37° C., cells were switched to Maintenance Media. On the next day, the cells were infected with 500 genome equivalents per cell of Genotype-A clinical isolate 21P (ProteoGenex, Culver City, Calif.) in 100 μl Maintenance Media supplemented with 4% PEG 8000 (Cat#V3011 Promega, Madison, Wis.). After an overnight incubation the inoculum was removed and the cells were washed three times with William's Media E and maintained in Maintenance Media. […] Following the transfection, the cells were incubated at 37° C. in a humidified incubator and media was changed every 3-4 days. The assay was terminated on day 14 post infection and cell viability was assessed by Alamar Blue. The collected medium was used for determination of HBsAg and HBeAg levels by MSD ELISA while cells were processed for determination of HBV RNA using qPCR.

[2] = test system: HBV; assay: PHH screening protocol: HBsAg and HBeAg levels by MSD ELISA; format: cell-based, Hepatitis B Virus; conditions: Hepatitis B virus
Experimental: HBV antiviral activity was assessed in primary human hepatocytes (PHH) in a 96-well format. PHH were (Life Technologies, Chicago, 11) plated on collagen coated tissue culture plates using Plating Media containing William's Medium E supplemented with 1% Penicillin/Streptomycin, 4 μg/mL human recombinant insulin, 2 mM glutamax, 15 mM Hepes, 1 μM dexamethasone and 5% fetal bovine serum (Life Technologies, Cat#A12176-01 Life Technologies, Chicago, Ill.). After a 4-hour incubation at 37° C., cells were switched to Maintenance Media (Cat#CM4000-A15564 Life Technologies, Chicago, Ill.) containing William's Medium E supplemented with 0.5% Penicillin/Streptomycin, 6.25 μg/mL human recombinant insulin, 6.25 μg/mL human transferrin, 6.25 ng/mL selenous acid, 1.25 mg/mL bovine serum albumin, 5.35 μg/mL linoleic acid, 2 mM glutamax, 15 mM Hepes, 0.1 μM dexamethasone, 2% fetal bovine serum, and 2% DMSO (Cat#D2650 Sigma, St. Louis, Mo.). On the next day, cells were infected with approximately 500 genome equivalent of selected HBV clinical isolates (21P (GTA), 32P (GTA), 91P (GTA), AD38 (GTD), 65P (GTD) or 30P (GTE); ProteoGenex, Culver City, Calif.) per cell in Maintenance Media supplemented with 4% PEG 8000 (Cat#V3011 Promega, Madison, Wis.). After 24 hour incubation cells were washed three times with William's Medium E and fed with fresh Maintenance Media. Small molecule inhibitors targeting KDMs were serially diluted in Maintenance Media and added to cells at 3 days post infection (p.i.). Media with compounds was replenished every 2-3 days. Media collected on various days was used for determination of HBsAg and HBeAg levels by MSD ELISA, and HBV RNA by qPCR. All data were converted into percentages of the untreated control and non-linear regression was performed to calculate EC50 or CC50 values.

[3] = test system: HBV; assay: Determination of HBV viral RNA by RT-qPCR in PHH; format: cell-based; conditions: Hepatitis B virus, read-out: HBV RNA EC50
Experimental: Following the Alamar Blue measurement, media was removed and total RNA from the cells was isolated using the RNeasy 96 Kit (Cat#74182 Qiagen, Venlo, Netherlands). […] GAPDH mRNA levels were also measured by RT-qPCR to control for differences in cell number, toxicity, and RNA purification efficiency (Cat#4390849 Life Technologies, Chicago Ill.). HBV mRNA Ct values were normalized using their cognate GAPDH mRNA Ct values by the delta-delta-Ct calculation and then expressed as a percentage of the non-targeting scrambled control.

[4] = target: T1, KDM4E (Homo sapiens, UniProt B2RXH2); assay: Biochemical KDM inhibition assay (LANCE), KDM4E; conditions: read-out: Biochemical IC50 KDM 4E
T1 construct: host or cells: Sf9 cells
T1 sequence (B2RXH2 1-506): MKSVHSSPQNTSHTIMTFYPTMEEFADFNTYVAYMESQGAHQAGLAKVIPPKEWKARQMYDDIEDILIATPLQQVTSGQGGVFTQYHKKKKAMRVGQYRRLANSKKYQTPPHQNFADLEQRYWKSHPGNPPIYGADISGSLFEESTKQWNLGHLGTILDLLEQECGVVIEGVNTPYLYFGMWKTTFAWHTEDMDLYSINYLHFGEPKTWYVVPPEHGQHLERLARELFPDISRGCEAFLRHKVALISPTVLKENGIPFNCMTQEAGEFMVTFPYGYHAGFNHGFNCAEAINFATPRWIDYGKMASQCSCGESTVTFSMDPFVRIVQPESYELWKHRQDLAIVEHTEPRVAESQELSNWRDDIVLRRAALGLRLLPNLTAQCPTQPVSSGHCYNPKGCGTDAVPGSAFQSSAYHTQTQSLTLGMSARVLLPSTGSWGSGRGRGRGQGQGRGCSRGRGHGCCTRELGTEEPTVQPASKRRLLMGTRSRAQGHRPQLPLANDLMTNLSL

[5] = target: KDM5A (Homo sapiens, UniProt P29375); assay: Biochemical KDM inhibition assay (LANCE), KDM5A; conditions: read-out: Biochemical IC50 KDM 5A
Experimental: (§1) Representative compounds were characterized for their inhibition of KDM5 using biotinylated histone substrates. Inhibition was measured in vitro (CEREP Poitier, Le Bois l'Evêque, France) following experimental conditions described in Table 2. Briefly, the test compound, reference compound or water (control) was mixed with about 2-20 ng of recombinant, Human enzymes expressed in Sf9 cells in a buffer containing 45 mM Hepes/Tris (pH 7), 5 μM FAS, 100 μM ascorbic acid, 10 μM 2-oxoglutarate, 0.01% Tween 20 and 0.01% BSA. Thereafter, the reaction was initiated by adding the biotin-labeled substrate, and the mixture was incubated for 10-30 min at room temperature. For basal control measurements, the enzyme was omitted from the reaction mixture. Following incubation the reaction was stopped by adding 1 mM EDTA. After 5 min, the anti-methyl histone antibody labeled with europium chelate and the Ulight streptavidine (Perkin Elmer Waltham, Mass.) were added. After 60 min more, the fluorescence transfer was measured at λex=320 nm and λem=620 and λem=665 nm using a microplate reader (Envision, Perkin Elmer) (LANCE). The enzyme activity was determined by dividing the signal measured at λem=665 nm by that measured at 620 nm (ratio).

[6] = target: T2, KDM5D (Homo sapiens, UniProt Q9BY66); assay: Biochemical KDM inhibition assay (LANCE), KDM5D; conditions: read-out: Biochemical IC50 KDM 5D
T2 construct: host or cells: Sf9 cells
Experimental: as §1

[7] = target: T3, KDM5B (Homo sapiens, UniProt Q9UGL1); assay: Biochemical KDM inhibition assay (LANCE), KDM5B; conditions: read-out: Biochemical IC50 KDM 5B
T3 construct: host or cells: Sf9 cells
Experimental: as §1

[8] = test system: H3K4me3 mark; assay: Western blot detection of H3K4me3 in HBV-infected PHHs; format: cell-based, human; conditions: for IC50: Homo sapiens
Experimental: One million primary human hepatocytes (PHH) cells from three different donors were plated in 6 well collagen coated tissue culture plates in 2.5 ml Plating Media containing William's Medium E supplemented with 1% Penicillin/Streptomycin, 4 μg/mL human recombinant insulin, 2 mM glutamax, 15 mM Hepes, 1 μM dexamethasone and 5% fetal bovine serum (Life Technologies, Cat#A12176-01 Life Technologies, Chicago, Ill.) and incubated for 4-hours at 37° C. Following this incubation the media was changed to Maintenance Media (Cat#CM4000-A15564 Life Technologies, Chicago, Ill.) containing William's Medium E supplemented with 0.5% Penicillin/Streptomycin, 6.25 μg/mL human recombinant insulin, 6.25 μg/mL human transferrin, 6.25 ng/mL selenous acid, 1.25 mg/mL bovine serum albumin, 5.35 μg/mL linoleic acid, 2 mM glutamax, 15 mM Hepes, 0.1 μM dexamethasone, 2% fetal bovine serum, and 2% DMSO (Cat#D2650 Sigma, St. Louis, Mo.). The next day, cells were infected with approximately 500 genome equivalents of HBV clinical isolates 21P (GTA) or AD38 (GTD) per cell in Maintenance Media supplemented with 4% PEG 8000. Small molecule inhibitors targeting KDMs were serially diluted in Maintenance Media and added to cells at 3 days post infection (p.i.). Media with compounds was replenished every 2-3 days. Cells were harvested on day 14 p.i. by scraping the monolayer into ice-cold PBS supplemented with 5 mM Sodium Butyrate and concentrated by centrifugation at 1000×g for 5 minutes at 4° C. The cell pellets were washed twice by re-suspension in PBS and concentrated by centrifugation. The cells were lysed by suspension in Triton Extraction Buffer (TEB: PBS containing 0.5% Triton X 100 (v/v), 2 mM phenylmethylsulfonyl fluoride (PMSF), 0.02% (w/v) NaN3) at a cell density of 10^7 cells per ml and incubated on ice for 10 minutes with gentle stirring. Following centrifugation at 500 g for 10 minutes at 4° C., the supernatants were removed and the pellets were washed in 5×10^7 cells per ml TEB buffer and centrifuged as before. The pellets were re-suspended in 0.2N HCl at a cell density of 4×10^7 cells per ml and the histones were acid extracted overnight at 4° C. Samples were centrifuged at 500 g for 10 minutes at 4° C., the supematants were removed and protein content was determined using the Bradford assay. Histones were separated on a 4-20% gradient SDS gel (Mini protean TGX precast gels from BioRad), and blotted to a Hybond C-extra nitrocellulose membrane (Amersham Biosciences, RPN303E). H3K4me3 and total H3 were detected with a mixture of 1° antibodies (Cat#05-745R Millipore and Cat#14269S Cell Signaling) diluted 1:1000 in 5% skimmed milk powder in PBS containing 0.1% Tween. The western blot was washed 3 times in PBS containing 0.1% tween and incubated with 2° antibodies (Donkey anti-Mouse IRDye at 680LT Cat#926-68022 Licor Odyssey; Donkey anti-Rabbit IRDye at 800CW Cat#96-32213; Licor Odyssey) diluted 1:10000 in 5% skimmed milk powder in PBS containing 0.1% tween 20 for 1 h. Detection of infrared fluorescence was performed on Infrared Fluorescence Imaging System LI-COR. Concentration dependence of H3K4me3/H3 signal was used to calculate IC50 value for induction of H3K4 trimethylation.

[9] = primary human hepatocytes (PHH), read-out: PHH CC50
[10] = read-out: HBeAg EC50, HBV-infected PHH
[11] = read-out: HBsAg EC50, HBV-infected PHH

T3 sequence (Q9UGL1 whole entry): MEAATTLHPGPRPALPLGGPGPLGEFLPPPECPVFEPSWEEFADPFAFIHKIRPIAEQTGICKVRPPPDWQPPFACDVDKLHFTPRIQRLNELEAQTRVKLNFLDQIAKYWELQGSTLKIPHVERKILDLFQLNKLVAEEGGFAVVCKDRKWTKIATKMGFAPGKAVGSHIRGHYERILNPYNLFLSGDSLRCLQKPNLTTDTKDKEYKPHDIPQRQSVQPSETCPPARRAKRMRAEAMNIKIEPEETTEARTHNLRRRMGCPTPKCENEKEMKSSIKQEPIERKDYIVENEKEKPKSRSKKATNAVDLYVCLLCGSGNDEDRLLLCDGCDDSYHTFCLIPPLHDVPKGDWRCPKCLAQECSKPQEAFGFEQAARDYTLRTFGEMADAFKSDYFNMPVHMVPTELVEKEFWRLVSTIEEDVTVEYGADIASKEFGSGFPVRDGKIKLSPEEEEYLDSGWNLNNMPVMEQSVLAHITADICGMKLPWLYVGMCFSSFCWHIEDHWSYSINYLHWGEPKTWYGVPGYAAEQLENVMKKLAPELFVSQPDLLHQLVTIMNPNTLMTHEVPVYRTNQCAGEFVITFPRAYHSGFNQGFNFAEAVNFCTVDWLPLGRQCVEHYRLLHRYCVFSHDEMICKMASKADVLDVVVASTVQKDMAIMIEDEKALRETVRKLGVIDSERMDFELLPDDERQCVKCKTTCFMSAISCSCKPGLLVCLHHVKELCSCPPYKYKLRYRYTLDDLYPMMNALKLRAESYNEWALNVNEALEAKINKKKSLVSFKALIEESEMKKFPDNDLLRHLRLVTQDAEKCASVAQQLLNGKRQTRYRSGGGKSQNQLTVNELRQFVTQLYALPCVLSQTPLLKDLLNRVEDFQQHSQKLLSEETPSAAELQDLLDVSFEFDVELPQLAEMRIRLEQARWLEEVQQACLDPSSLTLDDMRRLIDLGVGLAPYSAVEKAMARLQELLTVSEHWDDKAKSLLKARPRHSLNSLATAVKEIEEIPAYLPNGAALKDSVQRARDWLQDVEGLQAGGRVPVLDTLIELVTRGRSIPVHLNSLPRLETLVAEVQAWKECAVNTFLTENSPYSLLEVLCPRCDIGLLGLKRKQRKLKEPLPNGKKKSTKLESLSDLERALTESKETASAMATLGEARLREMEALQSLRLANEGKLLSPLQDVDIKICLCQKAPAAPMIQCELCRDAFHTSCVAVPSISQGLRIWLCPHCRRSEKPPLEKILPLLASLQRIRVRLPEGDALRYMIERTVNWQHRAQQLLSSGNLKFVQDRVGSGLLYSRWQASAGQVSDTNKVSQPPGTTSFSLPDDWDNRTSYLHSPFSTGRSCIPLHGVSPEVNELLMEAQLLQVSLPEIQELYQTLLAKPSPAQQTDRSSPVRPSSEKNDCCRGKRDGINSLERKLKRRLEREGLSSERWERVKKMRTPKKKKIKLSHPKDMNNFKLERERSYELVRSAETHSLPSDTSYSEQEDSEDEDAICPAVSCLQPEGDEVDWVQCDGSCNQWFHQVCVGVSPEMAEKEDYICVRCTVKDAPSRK
Chain of KDM5A (P29375 whole entry): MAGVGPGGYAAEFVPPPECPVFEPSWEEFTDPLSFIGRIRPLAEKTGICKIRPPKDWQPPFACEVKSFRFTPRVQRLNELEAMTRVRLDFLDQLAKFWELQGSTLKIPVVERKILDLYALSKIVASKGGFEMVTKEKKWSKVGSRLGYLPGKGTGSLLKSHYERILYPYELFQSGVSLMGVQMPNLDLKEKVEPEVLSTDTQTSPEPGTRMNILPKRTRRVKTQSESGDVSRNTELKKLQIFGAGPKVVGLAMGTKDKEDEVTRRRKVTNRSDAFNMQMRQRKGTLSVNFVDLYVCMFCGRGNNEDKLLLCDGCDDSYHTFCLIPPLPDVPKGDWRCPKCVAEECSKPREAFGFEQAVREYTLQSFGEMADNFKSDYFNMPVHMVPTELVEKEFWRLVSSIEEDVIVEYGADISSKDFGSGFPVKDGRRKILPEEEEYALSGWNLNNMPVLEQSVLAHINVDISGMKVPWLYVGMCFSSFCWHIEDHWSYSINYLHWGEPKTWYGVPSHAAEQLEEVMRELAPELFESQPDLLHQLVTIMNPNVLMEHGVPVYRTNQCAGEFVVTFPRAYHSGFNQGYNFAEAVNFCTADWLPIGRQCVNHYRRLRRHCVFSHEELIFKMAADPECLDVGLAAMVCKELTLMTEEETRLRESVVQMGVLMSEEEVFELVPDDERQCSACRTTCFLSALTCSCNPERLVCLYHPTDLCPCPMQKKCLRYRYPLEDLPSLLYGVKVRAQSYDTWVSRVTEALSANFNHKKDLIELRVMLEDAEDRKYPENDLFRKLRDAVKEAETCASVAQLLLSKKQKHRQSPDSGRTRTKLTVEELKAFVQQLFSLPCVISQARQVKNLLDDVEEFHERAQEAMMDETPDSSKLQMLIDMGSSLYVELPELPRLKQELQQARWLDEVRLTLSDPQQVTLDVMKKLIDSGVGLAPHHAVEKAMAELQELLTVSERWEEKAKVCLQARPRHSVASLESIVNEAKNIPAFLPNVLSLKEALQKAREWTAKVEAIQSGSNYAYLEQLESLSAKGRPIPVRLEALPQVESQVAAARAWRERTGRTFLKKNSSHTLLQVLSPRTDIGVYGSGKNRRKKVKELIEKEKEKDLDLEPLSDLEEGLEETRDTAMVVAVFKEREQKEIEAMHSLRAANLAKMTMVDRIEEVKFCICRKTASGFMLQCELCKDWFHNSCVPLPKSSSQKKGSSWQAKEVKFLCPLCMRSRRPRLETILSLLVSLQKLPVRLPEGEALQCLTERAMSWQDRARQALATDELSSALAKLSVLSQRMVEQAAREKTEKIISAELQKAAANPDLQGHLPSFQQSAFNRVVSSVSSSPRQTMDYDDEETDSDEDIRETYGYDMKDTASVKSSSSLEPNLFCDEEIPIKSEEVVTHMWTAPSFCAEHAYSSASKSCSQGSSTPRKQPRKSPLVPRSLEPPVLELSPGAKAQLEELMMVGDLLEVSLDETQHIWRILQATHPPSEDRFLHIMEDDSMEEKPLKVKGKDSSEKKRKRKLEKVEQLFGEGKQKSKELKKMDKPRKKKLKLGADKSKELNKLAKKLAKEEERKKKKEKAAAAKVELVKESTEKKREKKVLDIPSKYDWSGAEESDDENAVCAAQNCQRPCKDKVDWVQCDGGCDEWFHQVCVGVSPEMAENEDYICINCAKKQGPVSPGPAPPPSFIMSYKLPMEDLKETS
T2 sequence (Q9BY66 whole entry): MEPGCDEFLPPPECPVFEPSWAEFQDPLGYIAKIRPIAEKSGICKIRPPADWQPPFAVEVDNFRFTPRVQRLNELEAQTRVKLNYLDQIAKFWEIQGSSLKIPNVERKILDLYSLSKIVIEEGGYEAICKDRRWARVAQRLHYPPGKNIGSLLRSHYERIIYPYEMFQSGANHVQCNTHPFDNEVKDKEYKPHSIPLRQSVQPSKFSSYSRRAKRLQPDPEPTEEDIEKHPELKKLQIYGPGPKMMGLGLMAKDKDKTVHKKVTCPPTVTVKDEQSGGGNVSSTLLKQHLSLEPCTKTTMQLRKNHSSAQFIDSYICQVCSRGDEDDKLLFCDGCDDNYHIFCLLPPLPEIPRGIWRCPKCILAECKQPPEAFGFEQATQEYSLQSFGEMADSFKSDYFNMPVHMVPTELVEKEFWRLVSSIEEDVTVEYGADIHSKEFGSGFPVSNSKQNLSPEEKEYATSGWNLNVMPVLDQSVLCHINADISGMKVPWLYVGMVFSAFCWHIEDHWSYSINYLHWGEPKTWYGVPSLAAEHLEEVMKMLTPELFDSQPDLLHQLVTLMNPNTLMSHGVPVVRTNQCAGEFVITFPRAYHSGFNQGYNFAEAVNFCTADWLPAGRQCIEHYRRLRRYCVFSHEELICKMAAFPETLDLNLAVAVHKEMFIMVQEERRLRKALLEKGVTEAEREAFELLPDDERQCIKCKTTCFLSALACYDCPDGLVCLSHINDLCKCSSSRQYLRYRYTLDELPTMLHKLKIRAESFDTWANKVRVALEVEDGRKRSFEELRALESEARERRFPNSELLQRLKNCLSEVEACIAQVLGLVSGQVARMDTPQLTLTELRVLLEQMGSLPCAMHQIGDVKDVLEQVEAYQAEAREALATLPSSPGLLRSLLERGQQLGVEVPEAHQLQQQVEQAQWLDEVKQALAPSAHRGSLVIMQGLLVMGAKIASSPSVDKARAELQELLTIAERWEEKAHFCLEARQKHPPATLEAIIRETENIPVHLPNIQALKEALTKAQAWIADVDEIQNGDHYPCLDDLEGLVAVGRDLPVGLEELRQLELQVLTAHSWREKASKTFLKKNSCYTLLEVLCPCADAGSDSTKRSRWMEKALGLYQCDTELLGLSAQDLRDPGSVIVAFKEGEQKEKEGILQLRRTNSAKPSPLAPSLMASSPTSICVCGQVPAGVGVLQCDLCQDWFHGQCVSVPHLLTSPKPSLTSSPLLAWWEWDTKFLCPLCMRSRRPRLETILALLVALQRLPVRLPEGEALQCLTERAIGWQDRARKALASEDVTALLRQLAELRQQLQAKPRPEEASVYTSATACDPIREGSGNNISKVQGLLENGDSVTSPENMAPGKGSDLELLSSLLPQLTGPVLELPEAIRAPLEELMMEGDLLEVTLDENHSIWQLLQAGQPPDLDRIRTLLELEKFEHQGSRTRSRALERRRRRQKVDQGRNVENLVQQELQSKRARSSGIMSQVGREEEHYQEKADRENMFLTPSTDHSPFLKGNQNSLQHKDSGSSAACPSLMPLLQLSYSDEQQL

O=C(O)CCNc1cc(N2CCc3ccccc3CC2)nc(-c2ccccn2)n1 [Example 1, GSK-J1, reference compound]
CC50 [1, 9]: ≥ 100 µM
EC50 [2, 10]: 8.04 µM
EC50 [2, 11]: 22.4 µM

O=C(O)c1ccc(O)c2ncccc12 [Example 2, 8-HQ-5-COOH, reference compound]
EC50 [2, 10]: 32 µM
EC50 [2, 11]: 45.8 µM

CCOC(=O)CCNc1cc(N2CCc3ccccc3CC2)nc(-c2ccccn2)n1 [Example 3, GSK-J4, reference compound]
CC50 [1, 9]: ≥ 100 µM
EC50 [2, 10]: 3.43 µM
EC50 [2, 11]: 28.7 µM

Clc1ccc(N/N=C(\c2ccccc2)c2ccccn2)nc1 [Example 4, JIB-04, reference compound]
CC50 [1]: ≥ 100 µM
EC50 [2, 10]: 0.9 µM
EC50 [2, 11]: 0.9 µM
EC50 ([3]; HBV-infected PHH): 4.6 µM

CN(C)CCCNC(=O)c1ccc(-c2cc(O)c3ncccc3c2)cc1 [Example 5, ML-324, reference compound]
CC50 [1, 9]: 69.4 µM
EC50 [2, 10]: 34.5 µM
EC50 [2, 11]: 38.4 µM

N[C@H]1C[C@@H]1c1ccc(-c2cccc(O)c2)cc1 [Example 6, OG-L002, reference compound]
CC50 [1]: ≥ 100 µM
EC50 [2, 10]: 46.7 µM
EC50 [2, 11]: 38.3 µM
EC50 [3]: 31.6 µM

NC1CC1c1cccc(OCC[C@H](NC(=O)c2ccccc2)C(=O)NCc2ccccc2)c1 (some centres unmarked) [Example 10, NCL-1, reference compound]
CC50 [1]: 8.12 µM
EC50 [2, 10]: 19 µM
EC50 [2, 11]: 19.4 µM

O=C(O)c1ccnc(-n2ncc(CCO)c2OCc2ccc(F)cc2)c1 [Example 12]
CC50 [1]: ≥ 50 µM
IC50 [4]: 9.1 µM
IC50 [5]: 1.6 µM
IC50 [6]: 6.4 µM
EC50 [2, 10]: 50 µM
EC50 [2, 11]: 50 µM
IC50 [7]: 2.7 µM

CCN(CCN(C)C)C(=O)CNCc1cc(C=O)ccn1 [Example 15]
CC50 [1]: ≥ 50 µM
IC50 ([8]; read-out: IC50 (concentration causing a 50% increase in the H3K4me3 mark), Virus 21P (GTA), PHH 8130): 0.05 µM
IC50 ([8]; read-out: IC50 (concentration causing a 50% increase in the H3K4me3 mark), Virus 21P (GTA), PHH 8181): 0.03 µM
IC50 ([8]; read-out: IC50 (concentration causing a 50% increase in the H3K4me3 mark), Virus AD38 (GTD), PHH 4239): 0.02 µM
IC50 ([8]; read-out: IC50 (concentration causing a 50% increase in the H3K4me3 mark), Virus AD38 (GTD), PHH 8130): 0.05 µM
IC50 ([8]; read-out: IC50 (concentration causing a 50% increase in the H3K4me3 mark), Virus AD38 (GTD), PHH 8181): 0.04 µM
chromatin H3K4Me3 mark ([8]; PHH from three different donors): increase in the chromatin H3K4Me3 mark in a dose-dependent manner
EC50 [2, 10]: 0.053 µM
EC50 [2, 11]: 0.041 µM

CCN(CCN(C)C)C(=O)CNCc1cc(/C=N/CCO)ccn1 [Example 16]
CC50 [1]: ≥ 50 µM
EC50 [2, 10]: 0.648 µM
EC50 [2, 11]: 0.257 µM
